For data set [1] the following is noted: standard sweetening power, Saccharose = 1; cited from earlier work.
For data set [2] the following is noted: cited from earlier work.
For data set [3] the following is noted: cited from earlier work; for solubility: known Rebaudioside A forms, g soluble in 100 g solvent.
Data set [4] is classed as physicochemical. On the procedure: Hereinafter, unless specified otherwise, the solubility of a material is determined in reverse osmosis water at room temperature. […] The obtained powder was loaded into a 1000 L rotary vacuum dryer and dried at 105° C. at 10 mbar pressure for 3 hours. After 3 hours, preheated nitrogen at 100° C. was introduced into the vacuum chamber till ambient pressure was reached. Upon reaching ambient pressure, the vacuum dryer was connected to a vent and the nitrogen flow was continued at 100 L/min for a 4-hour time period. […] A sample of the powder was withdrawn from the dryer and the solubility tested in deionized water at room temperature.

Read-outs that look alike come from different tables or passages of the source. Where a SMILES comes first, the peptide text is derived from it.

With `CC1=CC(=O)NS(=O)(=O)O1` [Acesulfame-K], in data set [1], the Sweetness power was 200.

`C[C@@H](NC(=O)[C@@H](N)CC(=O)O)C(=O)NC1C(C)(C)SC1(C)C` [Alitame]: in data set [1], the Sweetness power is listed as 2000.

On to `COC(=O)[C@H](Cc1ccccc1)NC(=O)[C@@H](N)CC(=O)O` [Aspartame] (H-Asp-Phe-OMe), for which the Sweetness power in data set [1] is 200.

As for `C=C1C[C@@]23CC[C@H]4[C@@](C)(CCC[C@@]4(C)C(=O)O[C@@H]4O[C@H](CO)[C@@H](O)[C@H](O)[C@H]4O)[C@@H]2CC[C@]1(O[C@@H]1O[C@H](CO)[C@@H](O)[C@H](O[C@@H]2O[C@H](CO)[C@@H](O)[C@H](O)[C@H]2O)[C@H]1O[C@@H]1O[C@H](CO)[C@@H](O)[C@H](O)[C@H]1O)C3` [Form 1, Rebaudioside A], the “Rate of dissolution in H2O at 25° C.” value in data set [2] (grade in words) is reported as “Very low”; in data set [2] (in 60 minutes), “(<0.2% in”. Besides, in data set [3] (compared among Rebaudioside A forms), the “solubility (in words)” value is listed as “lowest solubility”. In data set [3] (listed as hydrate form), the solubility result is on record as “less than 0.2%”.

As for `C=C1C[C@@]23CC[C@H]4[C@@](C)(CCC[C@@]4(C)C(=O)O[C@@H]4O[C@H](CO)[C@@H](O)[C@H](O)[C@H]4O)[C@@H]2CC[C@]1(O[C@@H]1O[C@H](CO)[C@@H](O)[C@H](O[C@@H]2O[C@H](CO)[C@@H](O)[C@H](O)[C@H]2O)[C@H]1O[C@@H]1O[C@H](CO)[C@@H](O)[C@H](O)[C@H]1O)C3` [Form 2, Rebaudioside A], the “Rate of dissolution in H2O at 25° C.” value in data set [2] (grade in words) is “Intermediate”; in data set [2] (in 5 minutes), “(<30% in 5”. The solubility result in data set [3] (listed as anhydrous form of Rebaudioside A) and in data set [3] (listed as anhydrous form) was “up to 30%” throughout.

In the case of `C=C1C[C@@]23CC[C@H]4[C@@](C)(CCC[C@@]4(C)C(=O)O[C@@H]4O[C@H](CO)[C@@H](O)[C@H](O)[C@H]4O)[C@@H]2CC[C@]1(O[C@@H]1O[C@H](CO)[C@@H](O)[C@H](O[C@@H]2O[C@H](CO)[C@@H](O)[C@H](O)[C@H]2O)[C@H]1O[C@@H]1O[C@H](CO)[C@@H](O)[C@H](O)[C@H]1O)C3` [Form 3, Rebaudioside A], the results for the “Rate of dissolution in H2O at 25° C.” value in data set [2] (grade in words) and in data set [2] (in 5 minutes) were “High” and “(>30% in”, respectively. In addition, the solubility entry in data set [3] (listed as solvate form) is “greater than 30%”.

For the compound `C=C1C[C@@]23CC[C@H]4[C@@](C)(CCC[C@@]4(C)C(=O)O[C@@H]4O[C@H](CO)[C@@H](O)[C@H](O)[C@H]4O)[C@@H]2CC[C@]1(O[C@@H]1O[C@H](CO)[C@@H](O)[C@H](O[C@@H]2O[C@H](CO)[C@@H](O)[C@H](O)[C@H]2O)[C@H]1O[C@@H]1O[C@H](CO)[C@@H](O)[C@H](O)[C@H]1O)C3` [Form 4, Rebaudioside A], the “Rate of dissolution in H2O at 25° C.” value is given as “High” in data set [2] (grade in words) and “(>35% in” in data set [2] (in 5 minutes). The solubility result in data set [3] (listed as amorphous form) was “greater than 35%”.

As for `CC1(C)[C@@H](O[C@H]2O[C@H](C(=O)O)[C@@H](O)[C@H](O)[C@H]2O[C@@H]2O[C@H](C(=O)O)[C@@H](O)[C@H](O)[C@H]2O)CC[C@]2(C)[C@H]3C(=O)C=C4[C@@H]5C[C@@](C)(C(=O)O)CC[C@]5(C)CC[C@@]4(C)[C@]3(C)CC[C@@H]12` [Glycyrrhizin], the Sweetness power in data set [1] is listed as 50.

For the compound `COc1ccc(CCC(=O)c2c(O)cc(O[C@@H]3O[C@H](CO)[C@@H](O)[C@H](O)[C@H]3O[C@@H]3O[C@@H](C)[C@H](O)[C@@H](O)[C@H]3O)cc2O)cc1O` [NHDC, neohesperidin dihydrochalcone], in data set [1], the Sweetness power is 1000.

`C=C1C[C@@]23CC[C@H]4[C@@](C)(CCC[C@@]4(C)C(=O)O[C@@H]4O[C@H](CO)[C@@H](O)[C@H](O)[C@H]4O)[C@@H]2CC[C@]1(O[C@@H]1O[C@H](CO)[C@@H](O)[C@H](O[C@@H]2O[C@H](CO)[C@@H](O)[C@H](O)[C@H]2O)[C@H]1O[C@@H]1O[C@H](CO)[C@@H](O)[C@H](O)[C@H]1O)C3` [Rebaudioside A]: the solubility in data set [4] came out at 1.6%. In data set [1], the Sweetness power is reported as 450.

`O=C1NS(=O)(=O)c2ccccc21` [Saccharine]: the Sweetness power in data set [1] is recorded as 300.

In the case of `OC[C@H]1O[C@@](CO)(O[C@H]2O[C@H](CO)[C@@H](O)[C@H](O)[C@H]2O)[C@@H](O)[C@@H]1O` [Saccharose], the Sweetness power in data set [1] is 1.

For the compound `C=C1C[C@@]23CC[C@H]4[C@@](C)(CCC[C@@]4(C)C(=O)O[C@@H]4O[C@H](CO)[C@@H](O)[C@H](O)[C@H]4O)[C@@H]2CC[C@]1(O[C@@H]1O[C@H](CO)[C@@H](O)[C@H](O)[C@H]1O[C@@H]1O[C@H](CO)[C@@H](O)[C@H](O)[C@H]1O)C3` [Stevioside], the Sweetness power in data set [1] was 200.

`OC[C@H]1O[C@H](O[C@]2(CCl)O[C@H](CCl)[C@@H](O)[C@@H]2O)[C@H](O)[C@@H](O)[C@H]1Cl` [Sucralose]: in data set [1], the Sweetness power was 600.

Compound `C=C1C[C@@]23CC[C@H]4[C@@](C)(CCC[C@@]4(C)C(=O)O[C@@H]4O[C@H](CO)[C@@H](O)[C@H](O)[C@H]4O)[C@@H]2CC[C@]1(O[C@@H]1O[C@H](CO)[C@@H](O)[C@H](O[C@@H]2O[C@H](CO)[C@@H](O)[C@H](O)[C@H]2O)[C@H]1O[C@@H]1O[C@H](CO)[C@@H](O)[C@H](O)[C@H]1O)C3` [high solubility Rebaudioside A powder, Rebaudioside A] displayed a dissolution time in data set [4] (deionized water at room temperature) of 7 min.

For the compound Thaumatin, the Sweetness power in data set [1] is recorded as 3000.

The values above are taken from US10888099B2, “Granulation of a Stevia sweetener” (PureCircle Sdn Bhd, priority 2009, dated 2021).
